The values below come from US7585460B2, “Method for inhibiting the biological acidification of water in contact with materials containing sulfur” (ENI S.p.A., priority 2003, dated 2009).

This test relates to Thiobacilli. Put plainly: Acidification of rainwater over submersed sulfur block wetted with Thiobacilli, outdoors (Example 8). Type of test: cell-based, Thiobacillus. Conditions: 30 g/l NaCl. As to the method:
Two blocks of elemental sulfur with an upper surface of approximately 2500 cm^2 (8.5 Kg of sulfur) are positioned in two containers. The upper surface of each block of sulfur is wetted with 250 ml of a bacterial suspension of Thiobacilli containing over 10^8 bacteria per milliliter. The two blocks are subsequently submersed with rainwater. Sodium chloride is added to one of the containers until a concentration of 30 g/l is reached.
The containers are exposed to the outside environment for three months, care being taken to regularly replace the water possibly lost by evaporation. At the end of this period, the pH of the solution in the two containers is measured.

On to `[Cl-].[Na+]` [NaCl, Sodium Chloride], for which the pH runs as follows: (day 0) 6.0; (day 10) 5.9; (day 20) 5.8; (day 30) 5.8; (day 40) 5.8; (day 90) 5.8.
